Data as given in US6521446B2, “Biosensor” (Duke University, priority 1997, dated 2003).
pKd: −log10 of the molar value.

Experiment: Glucose binding, titration followed by fluorescence change of the conjugated fluorophore
Conditions: 255C background; read-out: binding constant
Method: (§1) Measurement of Glucose and Galactose Binding. Sugar binding was determined by measuring changes in fluorescence of the conjugated fluorophores on a SLM-Aminco-Bowman series-2 fluorimeter at 25±1° C. Glucose or galactose (Sigma) was titrated into a 50 nM conjugated protein solution in 0.1 M NaCl, 50 mM phosphate (pH 7.0), which was continuously mixed with a magnetic stirrer. For titrations, the excitation and emission slit widths were set to 4 and 16 nm, respectively (IANBD:λex=469 nm, λcm=540 nm; acrylodan: λex=392 nm, λem=520 nm). Under these conditions the instrument noise was <1% of the fluorescence signal observed in saturating solutions of glucose. Experimentally observed binding curves were fit to a binding isotherm:
(§2) where ΔF is the change in fluorescence, ΔFmax the fluorescence change at saturating concentrations of ligand, Kd the binding constant, and S the concentration of ligand.

Row | Substance | pKd
1 | D154A W183A: E. coli GBP double mutant in a 255C background | 2.14

Same assay, conditions: IANBD conjugate, relative to wild-type

Row | Substance | increase in the binding constant for glucose [fold]
2 | H152C: E. coli GBP single cysteine mutant in the binding pocket, nonallosteric reporter site, conjugated to IANBD or acrylodan | ~100

Same assay, conditions: IANBD conjugate; read-out: Kd(Glc)

Row | Substance | pKd
3 | L255C: E. coli GBP single cysteine mutant in the hinge region of the allosteric flap; allosterically signaling construct 255C | 6.49
4 | D257C: E. coli GBP single cysteine mutant in the hinge region, fluorophore conjugated | 6.10
5 | V296C: E. coli GBP single cysteine mutant in the hinge region, fluorophore conjugated | 7.00
6 | H152C: E. coli GBP single cysteine mutant in the binding pocket, nonallosteric reporter site, conjugated to IANBD or acrylodan | 4.70
7 | N15C: E. coli GBP single cysteine mutant in the binding pocket, nonallosteric reporter site, conjugated to IANBD or acrylodan | 6.89

Same assay, conditions: Table 2, binding-site mutants; read-out: Kd, D-Glucose

Row | Substance | pKd
8 | Y10A: E. coli GBP binding-site mutant, constructed in the 255C construct | 4.27
9 | D154A: E. coli GBP binding-site mutant | 4.94
10 | Y10A D154A: E. coli GBP binding-site double mutant | 2.98
11 | N91A: E. coli GBP binding-site mutant | 3.82
12 | F16Y: E. coli GBP binding-site mutant | 3.30
13 | S112A S115A: E. coli GBP binding-site double mutant | 5.05
14 | D14A: E. coli GBP binding-site mutant at position 14 | 3.54
15 | D154A W183A: E. coli GBP double mutant in a 255C background | 2.14
16 | S112A: E. coli GBP binding-site mutant | 5.14

Same assay, conditions: acrylodan and IANBD conjugates at the 15 position

Row | Substance | effect on the sugar binding constants
17 | N15C: E. coli GBP single cysteine mutant in the binding pocket, nonallosteric reporter site, conjugated to IANBD or acrylodan | do not greatly perturb the sugar binding constants

Same assay, conditions: acrylodan conjugate; read-out: Kd(Glc)

Row | Substance | pKd
18 | L255C: E. coli GBP single cysteine mutant in the hinge region of the allosteric flap; allosterically signaling construct 255C | 6.37
19 | P294C: E. coli GBP single cysteine mutant in the hinge region, fluorophore conjugated | 6.00
20 | D257C: E. coli GBP single cysteine mutant in the hinge region, fluorophore conjugated | 6.30
21 | N15C: E. coli GBP single cysteine mutant in the binding pocket, nonallosteric reporter site, conjugated to IANBD or acrylodan | 6.77

Same assay, conditions: glucose; read-out: binding constant

Row | Substance | pKd
22 | D154A W183A: E. coli GBP double mutant in a 255C background | 2.14

Same assay, conditions: mutants in the allosterically signaling construct 255C; read-out: binding constant for glucose

Row | Substance | pKd
23 | Y10A: E. coli GBP binding-site mutant, constructed in the 255C construct | 4.30
24 | L255C: E. coli GBP single cysteine mutant in the hinge region of the allosteric flap; allosterically signaling construct 255C | 6.70
25 | W183AY10A: GBP double mutant constructed in the allosterically signaling construct 255C | 3.19
26 | W183A: GBP single mutant constructed in the allosterically signaling construct 255C | 4.70

Same assay, conditions: wild type GBP; read-out: Kd (glucose)

Row | Substance | pKd
27 | Wild-type: wild type E. coli Glucose/Galactose Binding Protein (GBP) [reference compound] | 6.10

Experiment: Fluorescence of glucose-saturated GBP conjugate relative to apoprotein
Type: binding
Conditions: IANBD conjugate
Method: as §1, with “isotherm: […]” for “isotherm:”

Row | Substance | increase in fluorescence [fold]
28 | H152C: E. coli GBP single cysteine mutant in the binding pocket, nonallosteric reporter site, conjugated to IANBD or acrylodan | 4

Same assay, conditions: IANBD conjugate; 10 mM glucose

Row | Substance | R: ratio of fluorescence of fully saturated GBP (10 mM glucose) to apoprotein
29 | L255C: E. coli GBP single cysteine mutant in the hinge region of the allosteric flap; allosterically signaling construct 255C | 0.8
30 | P294C: E. coli GBP single cysteine mutant in the hinge region, fluorophore conjugated | 1.0
31 | D257C: E. coli GBP single cysteine mutant in the hinge region, fluorophore conjugated | 1.6
32 | V296C: E. coli GBP single cysteine mutant in the hinge region, fluorophore conjugated | 0.7
33 | H152C: E. coli GBP single cysteine mutant in the binding pocket, nonallosteric reporter site, conjugated to IANBD or acrylodan | 4.0
34 | N15C: E. coli GBP single cysteine mutant in the binding pocket, nonallosteric reporter site, conjugated to IANBD or acrylodan | 0.8

Same assay, conditions: acrylodan conjugate

Row | Substance | decrease in fluorescence upon ligand binding [fold]
35 | acrylodan conjugate at position 255: acrylodan conjugate of the L255C GBP mutant, best allosteric signal transducer in the hinge region | 2

Same assay, conditions: acrylodan conjugate; 10 mM glucose

Row | Substance | R: ratio of fluorescence of fully saturated GBP (10 mM glucose) to apoprotein
36 | L255C: E. coli GBP single cysteine mutant in the hinge region of the allosteric flap; allosterically signaling construct 255C | 0.5
37 | P294C: E. coli GBP single cysteine mutant in the hinge region, fluorophore conjugated | 0.9
38 | D257C: E. coli GBP single cysteine mutant in the hinge region, fluorophore conjugated | 0.8
39 | V296C: E. coli GBP single cysteine mutant in the hinge region, fluorophore conjugated | 1.0
40 | H152C: E. coli GBP single cysteine mutant in the binding pocket, nonallosteric reporter site, conjugated to IANBD or acrylodan | 1.0
41 | N15C: E. coli GBP single cysteine mutant in the binding pocket, nonallosteric reporter site, conjugated to IANBD or acrylodan | 0.7

Experiment: Sugar binding Kd of mutant proteins: D-Fructose
Conditions: Table 2, binding-site mutants
Method: (§3) Measurement of Glucose and Galactose Binding. Sugar binding was determined by measuring changes in fluorescence of the conjugated fluorophores on a SLM-Aminco-Bowman series-2 fluorimeter at 25±1° C. […] For titrations, the excitation and emission slit widths were set to 4 and 16 nm, respectively (IANBD:λex=469 nm, λcm=540 nm; acrylodan: λex=392 nm, λem=520 nm). Under these conditions the instrument noise was <1% of the fluorescence signal observed in saturating solutions of glucose. Experimentally observed binding curves were fit to a binding isotherm:
as §2
(§4) (Primary binding surface in E. coli GBP: Asn14, Asn91, His152, Asp154, Arg158, Asn211, Asp236, Asn256; secondary binding surface in E coli GBP: Tyr10, Phe16, Met17, Asn66, Ser112, Ser115, Trp183, Asn210, Met214, Gln261, Tyr295). In order to change the binding constant for glucose, residues in both surfaces have been systematically mutated, either singly or in pairs. The Asp154Ala, Trp183Ala (D154A+W183A) double mutant has a binding constant of 7.2 mM. The dynamic range is thus matched for operating in physiologically relevant glucose concentration ranges.

Row | Substance | pKd
42 | Y10A: E. coli GBP binding-site mutant, constructed in the 255C construct | 1.66
43 | Wild-type: wild type E. coli Glucose/Galactose Binding Protein (GBP) [reference compound] | 2.33
44 | D154A: E. coli GBP binding-site mutant | 1.62
45 | S112A: E. coli GBP binding-site mutant | 1.82

Experiment: Sugar binding Kd of mutant proteins: D-Xylose
Conditions: Table 2, binding-site mutants
Method: as §3, §2, §4

Row | Substance | pKd
46 | Wild-type: wild type E. coli Glucose/Galactose Binding Protein (GBP) [reference compound] | 2.85
47 | S112A: E. coli GBP binding-site mutant | 2.38

Experiment: Sugar binding Kd of mutant proteins: Lactose
Conditions: Table 2, binding-site mutants
Method: as §3, §2, §4

Row | Substance | pKd
48 | Wild-type: wild type E. coli Glucose/Galactose Binding Protein (GBP) [reference compound] | 2.89

Experiment: Sugar binding Kd of mutant proteins: L-Arabinose
Conditions: Table 2, binding-site mutants
Method: as §3, §2, §4

Row | Substance | pKd
49 | Y10A: E. coli GBP binding-site mutant, constructed in the 255C construct | 2.57
50 | Wild-type: wild type E. coli Glucose/Galactose Binding Protein (GBP) [reference compound] | 4.05
51 | D154A: E. coli GBP binding-site mutant | 2.66
52 | S112A S115A: E. coli GBP binding-site double mutant | 2.96
53 | D14A: E. coli GBP binding-site mutant at position 14 | 2.14
54 | S112A: E. coli GBP binding-site mutant | 3.06

Experiment: Sugar binding Kd of mutant proteins: D-Mannose
Conditions: Table 2, binding-site mutants
Method: as §3, §2, §4

Row | Substance | pKd
55 | Y10A: E. coli GBP binding-site mutant, constructed in the 255C construct | 2.15
56 | Wild-type: wild type E. coli Glucose/Galactose Binding Protein (GBP) [reference compound] | 3.98
57 | D154A: E. coli GBP binding-site mutant | 2.81
58 | N91A: E. coli GBP binding-site mutant | 1.80
59 | S112A S115A: E. coli GBP binding-site double mutant | 2.85
60 | D14A: E. coli GBP binding-site mutant at position 14 | 1.59
61 | S112A: E. coli GBP binding-site mutant | 3.17

Experiment: Sugar binding Kd of mutant proteins: Maltose
Conditions: Table 2, binding-site mutants
Method: as §3, §2, §4

Row | Substance | pKd
62 | Wild-type: wild type E. coli Glucose/Galactose Binding Protein (GBP) [reference compound] | 3.40
63 | S112A S115A: E. coli GBP binding-site double mutant | 2.48

Experiment: Galactose binding, titration followed by fluorescence change of the conjugated fluorophore
Conditions: IANBD conjugate, relative to wild-type
Method: as §1, §2

Row | Substance | increase in the binding constant for galactose [fold]
64 | H152C: E. coli GBP single cysteine mutant in the binding pocket, nonallosteric reporter site, conjugated to IANBD or acrylodan | ~500

Same assay, conditions: IANBD conjugate; read-out: Kd(Gal)

Row | Substance | pKd
65 | L255C: E. coli GBP single cysteine mutant in the hinge region of the allosteric flap; allosterically signaling construct 255C | 6.31
66 | D257C: E. coli GBP single cysteine mutant in the hinge region, fluorophore conjugated | 5.82
67 | V296C: E. coli GBP single cysteine mutant in the hinge region, fluorophore conjugated | 6.52
68 | H152C: E. coli GBP single cysteine mutant in the binding pocket, nonallosteric reporter site, conjugated to IANBD or acrylodan | 3.80
69 | N15C: E. coli GBP single cysteine mutant in the binding pocket, nonallosteric reporter site, conjugated to IANBD or acrylodan | 7.00

Same assay, conditions: Table 2, binding-site mutants; read-out: Kd, D-Galactose

Row | Substance | pKd
70 | Y10A: E. coli GBP binding-site mutant, constructed in the 255C construct | 3.74
71 | Wild-type: wild type E. coli Glucose/Galactose Binding Protein (GBP) [reference compound] | 5.62
72 | D154A: E. coli GBP binding-site mutant | 4.39
73 | Y10A D154A: E. coli GBP binding-site double mutant | 2.36
74 | N91A: E. coli GBP binding-site mutant | 2.97
75 | F16Y: E. coli GBP binding-site mutant | 2.93
76 | S112A S115A: E. coli GBP binding-site double mutant | 4.48
77 | D14A: E. coli GBP binding-site mutant at position 14 | 3.41
78 | S112A: E. coli GBP binding-site mutant | 4.61

Same assay, conditions: acrylodan conjugate; read-out: Kd(Gal)

Row | Substance | pKd
79 | L255C: E. coli GBP single cysteine mutant in the hinge region of the allosteric flap; allosterically signaling construct 255C | 6.21
80 | P294C: E. coli GBP single cysteine mutant in the hinge region, fluorophore conjugated | 6.00
81 | D257C: E. coli GBP single cysteine mutant in the hinge region, fluorophore conjugated | 6.30
82 | N15C: E. coli GBP single cysteine mutant in the binding pocket, nonallosteric reporter site, conjugated to IANBD or acrylodan | 6.82

Experiment: Sugar binding Kd of mutant proteins: D-Fucose
Conditions: Table 2, binding-site mutants
Method: as §3, §2, §4

Row | Substance | pKd
83 | Wild-type: wild type E. coli Glucose/Galactose Binding Protein (GBP) [reference compound] | 3.47
84 | D154A: E. coli GBP binding-site mutant | 3.85
85 | N91A: E. coli GBP binding-site mutant | 2.91
86 | F16Y: E. coli GBP binding-site mutant | 2.22
